# Test system: panel of nearly 500 cancer cell lines
# Assay: Cancer Cell Line Encyclopedia profiling, 3-day CellTiter-Glo
# Assay type: cell-based
# Design: Amax: unit not given here
smiles,measurement,setting,value
"CN(C)C(=O)c1cc2cnc(Nc3ccc(N4CCNCC4)cn3)nc2n1C1CCCC1 [Ribociclib, 7-cyclopentyl-2-(5-piperazin-1-yl-pyridin-2-ylamino)-7H-pyrrolo[2,3-d]pyrimidine-6-carboxylic acid dimethylamide]",Amax,8mgba (central_nervous_system),0.325
same,Amax,769p (kidney),-56.5199
same,Amax,786o (kidney),2.199
same,Amax,8305c (thyroid),-43.2823
same,Amax,8505c (thyroid),-10.3812
same,EC50,CMK-86,0.195 µM
same,IC50,CMK-86,0.513 µM
same,EC50,COLO 699,0.00254 µM
same,IC50,COLO 699,> 8 µM
same,EC50,COV318,> 8 µM
same,IC50,COV318,> 8 µM
same,EC50,COV504,> 8 µM
same,IC50,COV504,> 8 µM
same,EC50,Fu97,0.483 µM
same,IC50,Fu97,> 8 µM
same,EC50,GLC82,> 8 µM
same,IC50,GLC82,> 8 µM
same,EC50,HCC15,> 8 µM
same,IC50,HCC15,> 8 µM
same,EC50,HEC-6,> 8 µM
same,IC50,HEC-6,> 8 µM
same,EC50,HEC-251,> 8 µM
same,IC50,HEC-251,> 8 µM
same,EC50,HEY A8,2.2 µM
same,IC50,HEY A8,> 8 µM
same,EC50,"Homo sapiens, 8-MG-BA",> 8 µM
same,IC50,"Homo sapiens, 8-MG-BA",> 8 µM
same,EC50,"Homo sapiens, 22Rv1",0.99 µM
same,IC50,"Homo sapiens, 22Rv1",3.81 µM
same,EC50,"Homo sapiens, 639-V",> 8 µM
same,IC50,"Homo sapiens, 639-V",> 8 µM
same,EC50,"Homo sapiens, 769-P",1.14 µM
same,IC50,"Homo sapiens, 769-P",4.43 µM
same,EC50,"Homo sapiens, 786-0",> 8 µM
same,IC50,"Homo sapiens, 786-0",> 8 µM
same,EC50,"Homo sapiens, 8305C",> 8 µM
same,IC50,"Homo sapiens, 8305C",> 8 µM
same,EC50,"Homo sapiens, 8505C",1.87 µM
same,IC50,"Homo sapiens, 8505C",> 8 µM
same,EC50,"Homo sapiens, A 172",> 8 µM
same,IC50,"Homo sapiens, A 172",> 8 µM
same,EC50,"Homo sapiens, A204",0.0389 µM
same,IC50,"Homo sapiens, A204",> 8 µM
same,EC50,"Homo sapiens, A253",> 8 µM
same,IC50,"Homo sapiens, A253",> 8 µM
same,EC50,"Homo sapiens, A549",0.801 µM
same,IC50,"Homo sapiens, A549",> 8 µM
same,EC50,"Homo sapiens, A673",0.568 µM
same,IC50,"Homo sapiens, A673",> 8 µM
same,EC50,"Homo sapiens, A2058",> 8 µM
same,IC50,"Homo sapiens, A2058",> 8 µM
same,EC50,"Homo sapiens, A2780",0.201 µM
same,IC50,"Homo sapiens, A2780",4.04 µM
same,EC50,"Homo sapiens, A-375",> 8 µM
same,IC50,"Homo sapiens, A-375",8 µM
same,EC50,"Homo sapiens, ACHN",> 8 µM
same,IC50,"Homo sapiens, ACHN",> 8 µM
same,EC50,"Homo sapiens, AMO1",> 8 µM
same,IC50,"Homo sapiens, AMO1",> 8 µM
same,EC50,"Homo sapiens, AN3-CA",> 8 µM
same,IC50,"Homo sapiens, AN3-CA",> 8 µM
same,EC50,"Homo sapiens, ASPC1",> 8 µM
same,IC50,"Homo sapiens, ASPC1",> 8 µM
same,EC50,"Homo sapiens, AU565",> 8 µM
same,IC50,"Homo sapiens, AU565",> 8 µM
same,EC50,"Homo sapiens, AZ-521",> 8 µM
same,IC50,"Homo sapiens, AZ-521",> 8 µM
same,EC50,"Homo sapiens, BCPAP",> 8 µM
same,IC50,"Homo sapiens, BCPAP",> 8 µM
same,EC50,"Homo sapiens, BFTC-909",3.38 µM
same,IC50,"Homo sapiens, BFTC-909",> 8 µM
same,EC50,"Homo sapiens, BGC-823",> 8 µM
same,IC50,"Homo sapiens, BGC-823",> 8 µM
same,EC50,"Homo sapiens, BL-41",> 8 µM
same,IC50,"Homo sapiens, BL-41",> 8 µM
same,EC50,"Homo sapiens, BT-474",> 8 µM
same,IC50,"Homo sapiens, BT-474",> 8 µM
same,EC50,"Homo sapiens, BT-549",> 8 µM
same,IC50,"Homo sapiens, BT-549",> 8 µM
same,EC50,"Homo sapiens, BXPC-3",> 8 µM
same,IC50,"Homo sapiens, BXPC-3",> 8 µM
same,EC50,"Homo sapiens, C2BBe1",> 8 µM
same,IC50,"Homo sapiens, C2BBe1",> 8 µM
same,EC50,"Homo sapiens, CAKI-2",> 8 µM
same,IC50,"Homo sapiens, CAKI-2",> 8 µM
same,EC50,"Homo sapiens, CAL-12T",4.08 µM
same,IC50,"Homo sapiens, CAL-12T",4.08 µM
same,EC50,"Homo sapiens, CAL-27",3.83 µM
same,IC50,"Homo sapiens, CAL-27",> 8 µM
same,EC50,"Homo sapiens, CAL-85-1",> 8 µM
same,IC50,"Homo sapiens, CAL-85-1",> 8 µM
same,EC50,"Homo sapiens, CAMA-1",> 8 µM
same,IC50,"Homo sapiens, CAMA-1",> 8 µM
same,EC50,"Homo sapiens, CHL-1",> 8 µM
same,IC50,"Homo sapiens, CHL-1",> 8 µM
same,EC50,"Homo sapiens, CHP-212",0.126 µM
same,IC50,"Homo sapiens, CHP-212",1.84 µM
same,EC50,"Homo sapiens, COLO 201",> 8 µM
same,IC50,"Homo sapiens, COLO 201",> 8 µM
same,EC50,"Homo sapiens, COLO 205",1.24 µM
same,IC50,"Homo sapiens, COLO 205",3.46 µM
same,EC50,"Homo sapiens, COLO 320",> 8 µM
same,IC50,"Homo sapiens, COLO 320",> 8 µM
same,EC50,"Homo sapiens, COLO-678",0.475 µM
same,IC50,"Homo sapiens, COLO-678",> 8 µM
same,EC50,"Homo sapiens, COLO-679",1.03 µM
same,IC50,"Homo sapiens, COLO-679",> 8 µM
same,EC50,"Homo sapiens, COLO-741",2.13 µM
same,IC50,"Homo sapiens, COLO-741",> 8 µM
same,EC50,"Homo sapiens, COR-L23",> 8 µM
same,IC50,"Homo sapiens, COR-L23",> 8 µM
same,EC50,"Homo sapiens, COR-L105",> 8 µM
same,IC50,"Homo sapiens, COR-L105",> 8 µM
same,EC50,"Homo sapiens, Calu-1",> 8 µM
same,IC50,"Homo sapiens, Calu-1",> 8 µM
same,EC50,"Homo sapiens, Calu-3",> 8 µM
same,IC50,"Homo sapiens, Calu-3",> 8 µM
same,EC50,"Homo sapiens, Calu-6",1.48 µM
same,IC50,"Homo sapiens, Calu-6",> 8 µM
same,EC50,"Homo sapiens, Capan-2",> 8 µM
same,IC50,"Homo sapiens, Capan-2",> 8 µM
same,EC50,"Homo sapiens, DBTRG-05MG",0.347 µM
same,IC50,"Homo sapiens, DBTRG-05MG",> 8 µM
same,EC50,"Homo sapiens, DMS-114",0.112 µM
same,IC50,"Homo sapiens, DMS-114",> 8 µM
same,EC50,"Homo sapiens, DOHH-2",0.122 µM
same,IC50,"Homo sapiens, DOHH-2",> 8 µM
same,EC50,"Homo sapiens, DOV13",> 8 µM
same,IC50,"Homo sapiens, DOV13",> 8 µM
same,EC50,"Homo sapiens, DU-145",> 8 µM
same,IC50,"Homo sapiens, DU-145",> 8 µM
same,EC50,"Homo sapiens, DV-90",0.00743 µM
same,IC50,"Homo sapiens, DV-90",> 8 µM
same,EC50,"Homo sapiens, Daoy",> 8 µM
same,IC50,"Homo sapiens, Daoy",> 8 µM
same,EC50,"Homo sapiens, Detroit 562",> 8 µM
same,IC50,"Homo sapiens, Detroit 562",> 8 µM
same,EC50,"Homo sapiens, EBC-1",0.44 µM
same,IC50,"Homo sapiens, EBC-1",> 8 µM
same,EC50,"Homo sapiens, EFE-184",> 8 µM
same,IC50,"Homo sapiens, EFE-184",> 8 µM
same,EC50,"Homo sapiens, EFM-19",0.0482 µM
same,IC50,"Homo sapiens, EFM-19",> 8 µM
same,EC50,"Homo sapiens, EFO-21",> 8 µM
same,IC50,"Homo sapiens, EFO-21",> 8 µM
same,EC50,"Homo sapiens, EFO-27",> 8 µM
same,IC50,"Homo sapiens, EFO-27",> 8 µM
same,EC50,"Homo sapiens, ESS-1",0.867 µM
same,IC50,"Homo sapiens, ESS-1",> 8 µM
same,EC50,"Homo sapiens, FaDu",> 8 µM
same,IC50,"Homo sapiens, FaDu",> 8 µM
same,EC50,"Homo sapiens, G-361",> 8 µM
same,IC50,"Homo sapiens, G-361",> 8 µM
same,EC50,"Homo sapiens, G-401",0.00888 µM
same,IC50,"Homo sapiens, G-401",> 8 µM
same,EC50,"Homo sapiens, G-402",0.467 µM
same,IC50,"Homo sapiens, G-402",2.05 µM
same,EC50,"Homo sapiens, GAMG",> 8 µM
same,IC50,"Homo sapiens, GAMG",> 8 µM
same,EC50,"Homo sapiens, GCIY",> 8 µM
same,IC50,"Homo sapiens, GCIY",> 8 µM
same,EC50,"Homo sapiens, GMS-10",> 8 µM
same,IC50,"Homo sapiens, GMS-10",> 8 µM
same,EC50,"Homo sapiens, Granta-519",> 8 µM
same,IC50,"Homo sapiens, Granta-519",> 8 µM
same,EC50,"Homo sapiens, HCC44",1.59 µM
same,IC50,"Homo sapiens, HCC44",> 8 µM
same,EC50,"Homo sapiens, HCC70",> 8 µM
same,IC50,"Homo sapiens, HCC70",> 8 µM
same,EC50,"Homo sapiens, HCC78",> 8 µM
same,IC50,"Homo sapiens, HCC78",> 8 µM
same,EC50,"Homo sapiens, HCC827",> 8 µM
same,IC50,"Homo sapiens, HCC827",> 8 µM
same,EC50,"Homo sapiens, HCC1187",> 8 µM
same,IC50,"Homo sapiens, HCC1187",> 8 µM
same,EC50,"Homo sapiens, HCC1395",> 8 µM
same,IC50,"Homo sapiens, HCC1395",> 8 µM
same,EC50,"Homo sapiens, HCC1569",> 8 µM
same,IC50,"Homo sapiens, HCC1569",> 8 µM
same,EC50,"Homo sapiens, HCC1806",> 8 µM
same,IC50,"Homo sapiens, HCC1806",> 8 µM
same,EC50,"Homo sapiens, HCC1954",> 8 µM
same,IC50,"Homo sapiens, HCC1954",> 8 µM
same,EC50,"Homo sapiens, HCC2935",> 8 µM
same,IC50,"Homo sapiens, HCC2935",> 8 µM
same,EC50,"Homo sapiens, HCC4006",> 8 µM
same,IC50,"Homo sapiens, HCC4006",> 8 µM
same,EC50,"Homo sapiens, HCT-15",4.53 µM
same,IC50,"Homo sapiens, HCT-15",> 8 µM
same,EC50,"Homo sapiens, HCT-116",> 8 µM
same,IC50,"Homo sapiens, HCT-116",> 8 µM
same,EC50,"Homo sapiens, HDQ-P1",0.506 µM
same,IC50,"Homo sapiens, HDQ-P1",> 8 µM
same,EC50,"Homo sapiens, HEC-1-A",> 8 µM
same,IC50,"Homo sapiens, HEC-1-A",> 8 µM
same,EC50,"Homo sapiens, HEC-1B",0.0275 µM
same,IC50,"Homo sapiens, HEC-1B",> 8 µM
same,EC50,"Homo sapiens, HEL 92.1.7",> 8 µM
same,IC50,"Homo sapiens, HEL 92.1.7",> 8 µM
same,EC50,"Homo sapiens, HGC-27",0.188 µM
same,IC50,"Homo sapiens, HGC-27",0.534 µM
same,EC50,"Homo sapiens, HMCB",> 8 µM
same,IC50,"Homo sapiens, HMCB",> 8 µM
same,EC50,"Homo sapiens, HPAC",2.67 µM
same,IC50,"Homo sapiens, HPAC",2.67 µM

# From PMC6219668 (Oncotarget, 2018)
